The results in this text go back to ChEMBL document CHEMBL3431459, “Roche carnitine palmitoyltransferase modulator screening data (supplementary data associated with the publication CHEMBL2216752)”.

pIC50: −log10 of the molar value. ≈ marks a conversion by molar mass, not a printed value.

The term pIC50 denotes the negative decadic logarithm of the IC50, by convention in mol/L. A high value points to a low IC50. Usually logD stands for the decadic logarithm of the distribution of all forms, ionised or not, between an organic phase and buffer at a given pH. Read a high logD as higher lipophilicity.

Data set [1] deals with T1, Carnitine O-palmitoyltransferase 1, muscle isoform (Homo sapiens, UniProt Q92523).
T1 sequence (Q92523 whole entry): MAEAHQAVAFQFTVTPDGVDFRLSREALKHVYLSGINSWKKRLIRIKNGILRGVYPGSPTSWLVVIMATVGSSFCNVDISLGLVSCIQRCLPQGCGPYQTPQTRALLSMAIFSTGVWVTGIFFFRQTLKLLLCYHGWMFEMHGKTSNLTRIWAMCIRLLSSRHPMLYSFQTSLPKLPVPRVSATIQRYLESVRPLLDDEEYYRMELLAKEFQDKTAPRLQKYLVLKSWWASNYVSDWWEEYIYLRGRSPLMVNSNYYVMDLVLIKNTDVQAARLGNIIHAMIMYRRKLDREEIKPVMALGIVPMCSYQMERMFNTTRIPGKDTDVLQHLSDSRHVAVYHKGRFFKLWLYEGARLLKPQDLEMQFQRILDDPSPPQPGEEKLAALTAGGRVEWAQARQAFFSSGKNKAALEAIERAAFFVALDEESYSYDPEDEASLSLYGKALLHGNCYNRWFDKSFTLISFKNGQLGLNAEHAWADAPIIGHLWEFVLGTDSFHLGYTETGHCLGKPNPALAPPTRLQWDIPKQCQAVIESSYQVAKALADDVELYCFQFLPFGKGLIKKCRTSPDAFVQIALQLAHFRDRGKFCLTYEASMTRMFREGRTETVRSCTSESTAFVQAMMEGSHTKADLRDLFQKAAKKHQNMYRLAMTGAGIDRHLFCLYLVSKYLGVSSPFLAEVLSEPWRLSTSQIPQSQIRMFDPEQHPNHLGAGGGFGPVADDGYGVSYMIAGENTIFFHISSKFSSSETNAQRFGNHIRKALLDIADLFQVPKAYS
Description: SUPPLEMENTARY: Inhibition of Carnitine palmitoyltransferase 1, muscle isoform. On the set-up: species or system Muscle tissue.

In data set [2] the target is T2, Carnitine O-palmitoyltransferase 2, mitochondrial (Homo sapiens, UniProt P23786).
T2 sequence (P23786 whole entry): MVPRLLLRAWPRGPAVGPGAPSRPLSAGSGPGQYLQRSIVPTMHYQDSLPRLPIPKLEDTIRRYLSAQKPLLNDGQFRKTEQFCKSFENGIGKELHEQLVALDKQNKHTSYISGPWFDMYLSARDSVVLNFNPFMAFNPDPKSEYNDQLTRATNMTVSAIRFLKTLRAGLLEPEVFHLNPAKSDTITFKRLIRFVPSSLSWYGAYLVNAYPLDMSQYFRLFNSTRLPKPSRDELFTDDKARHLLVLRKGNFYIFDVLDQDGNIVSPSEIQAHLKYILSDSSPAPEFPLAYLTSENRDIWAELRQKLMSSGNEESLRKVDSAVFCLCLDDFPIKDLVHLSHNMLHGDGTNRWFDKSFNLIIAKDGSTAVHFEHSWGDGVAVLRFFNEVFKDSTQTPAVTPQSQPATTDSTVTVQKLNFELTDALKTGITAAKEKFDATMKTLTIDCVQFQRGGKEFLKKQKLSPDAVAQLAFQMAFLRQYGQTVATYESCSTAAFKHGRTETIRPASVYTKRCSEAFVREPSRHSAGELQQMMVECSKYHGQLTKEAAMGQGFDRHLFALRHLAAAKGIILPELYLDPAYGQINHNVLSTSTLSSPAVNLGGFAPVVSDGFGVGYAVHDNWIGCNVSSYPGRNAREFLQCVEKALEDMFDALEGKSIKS
Description: (§1) SUPPLEMENTARY: Inhibition of Carnitine palmitoyltransferase 2.

The target of data set [3] is T3, Carnitine O-palmitoyltransferase 2, mitochondrial (Rattus norvegicus, UniProt P18886).
T3 sequence (P18886 whole entry): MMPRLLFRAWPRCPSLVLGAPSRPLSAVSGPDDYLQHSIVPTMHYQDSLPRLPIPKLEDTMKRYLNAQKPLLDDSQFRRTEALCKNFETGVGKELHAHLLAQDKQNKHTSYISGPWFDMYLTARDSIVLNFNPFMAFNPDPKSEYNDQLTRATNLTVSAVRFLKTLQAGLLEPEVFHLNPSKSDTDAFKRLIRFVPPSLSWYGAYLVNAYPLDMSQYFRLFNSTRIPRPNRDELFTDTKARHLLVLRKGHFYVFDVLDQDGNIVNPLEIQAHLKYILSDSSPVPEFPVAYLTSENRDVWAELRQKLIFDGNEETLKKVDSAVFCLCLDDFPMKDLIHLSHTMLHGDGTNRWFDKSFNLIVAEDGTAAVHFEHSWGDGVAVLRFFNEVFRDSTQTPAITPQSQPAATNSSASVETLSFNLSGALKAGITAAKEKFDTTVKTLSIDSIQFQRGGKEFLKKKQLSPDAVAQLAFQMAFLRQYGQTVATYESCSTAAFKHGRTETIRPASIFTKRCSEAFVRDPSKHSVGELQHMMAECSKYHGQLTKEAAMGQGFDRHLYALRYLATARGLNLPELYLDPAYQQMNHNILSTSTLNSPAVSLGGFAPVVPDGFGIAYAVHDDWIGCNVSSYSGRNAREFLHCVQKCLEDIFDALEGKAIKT
Described as §1.

Data set [4] addresses T4, Carnitine O-palmitoyltransferase 1, liver isoform (Homo sapiens, UniProt P50416).
T4 sequence (P50416 whole entry): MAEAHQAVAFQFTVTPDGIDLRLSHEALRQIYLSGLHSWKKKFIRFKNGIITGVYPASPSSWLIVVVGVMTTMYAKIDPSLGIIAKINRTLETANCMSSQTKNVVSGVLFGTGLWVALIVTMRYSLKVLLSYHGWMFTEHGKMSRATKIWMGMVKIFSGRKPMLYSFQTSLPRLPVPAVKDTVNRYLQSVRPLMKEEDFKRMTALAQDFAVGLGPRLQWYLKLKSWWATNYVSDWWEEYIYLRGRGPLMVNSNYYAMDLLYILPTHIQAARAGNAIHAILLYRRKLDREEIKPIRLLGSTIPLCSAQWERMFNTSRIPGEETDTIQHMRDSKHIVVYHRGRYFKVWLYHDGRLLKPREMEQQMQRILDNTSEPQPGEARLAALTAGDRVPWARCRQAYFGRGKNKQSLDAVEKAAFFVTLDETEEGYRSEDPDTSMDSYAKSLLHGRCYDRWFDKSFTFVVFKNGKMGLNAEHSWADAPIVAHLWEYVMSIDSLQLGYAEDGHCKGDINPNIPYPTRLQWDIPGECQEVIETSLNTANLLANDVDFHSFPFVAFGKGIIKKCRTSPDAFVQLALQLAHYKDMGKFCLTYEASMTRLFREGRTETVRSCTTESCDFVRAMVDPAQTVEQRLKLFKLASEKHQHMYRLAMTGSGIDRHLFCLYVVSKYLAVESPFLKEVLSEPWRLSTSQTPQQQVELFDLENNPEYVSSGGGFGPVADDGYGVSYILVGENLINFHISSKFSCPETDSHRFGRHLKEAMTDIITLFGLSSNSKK
The experiment in a line: SUPPLEMENTARY: Inhibition of Carnitine palmitoyltransferase 1, liver isoform.

Data set [5] can be described thus: SUPPLEMENTARY: Lyophilisation Solubility Assay (LYSA). In kind it is physicochemical. The conditions noted are these: read-out: Kinetic_solubility.
Data set [6] can be described thus: SUPPLEMENTARY: Lipophilicity (log D) Determination by high-throughput shake-flask. The conditions noted are these: octanol/water. In kind it is physicochemical.
Data set [7] in a line: SUPPLEMENTARY: PAMPA permeability assay. It is filed as physicochemical. The conditions noted are these: read-out: Permeability.

Regarding `O=C1CCC(=O)N1c1cccc(-c2n[nH]c([C@H]3CCCCN3C(=O)COc3ccccc3)n2)c1`, the pIC50 in data set [1] was < 4.00; in data set [2], 4.67; in data set [3] it was 4.20; in data set [4], 6.90. Moreover, in data set [5], the solubility kinetic was determined as 172 µg/mL (≈ 373 µM). Further, the pH-dependent lipophilicity (logD) in data set [6] was determined as 1.51. In addition, the Papp in data set [7] was 3.3 ×10⁻⁶ cm/s.
In the case of `COc1ccc(Cl)cc1S(=O)(=O)N1CCOc2ccc(C(=O)Nc3nc(CC(=O)O)cs3)cc21`, the negative-log IC50 (pIC50) was 6.37 in data set [1], < 4.00 in data set [2], < 4.00 in data set [3] and 7.30 in data set [4]. Further, in data set [5], the solubility kinetic turned out to be 26 µg/mL (≈ 49.6 µM). For the same compound, in data set [6], the logD was -0.01. For the same compound, the Papp in data set [7] is 1.62 ×10⁻⁶ cm/s.
As for `COc1ccc(Cl)cc1CN1C(=O)OC(C)(C)c2ccc(C(=O)Nc3ccc(CC(=O)O)c(Cl)c3)cc21`, the negative-log IC50 (pIC50) in data set [1] was 5.73; in data set [2] it was < 4.00; in data set [3], < 4.00; in data set [4], 6.48. For the same compound, the solubility kinetic in data set [5] was determined as 25 µg/mL (≈ 46 µM). The logD in data set [6] was determined as 1.83. The Papp in data set [7] is 1.36 ×10⁻⁶ cm/s.
Consider `O=C(NCc1ccccc1)[C@H]1CCCCN1C(=O)COc1ccccc1`, for which the negative logarithm of the IC50 (pIC50) was < 4.00 in data set [1], < 4.00 in data set [2], < 4.00 in data set [3] and 5.59 in data set [4]. The solubility kinetic in data set [5] is 43 µg/mL (≈ 122 µM). Further, the logD in data set [6] stood at 2.51. Moreover, the Papp in data set [7] came to 7.12 ×10⁻⁶ cm/s.
For `CN(Cc1ccccc1)C(=O)[C@H]1CCCCN1C(=O)COc1ccccc1`, the negative logarithm of the IC50 (pIC50) in data set [1] was < 4.00; in data set [2], 5.57; in data set [3], 5.16; in data set [4], 5.71. Besides, the solubility kinetic in data set [5] was determined as 112 µg/mL (≈ 306 µM). This compound also displayed a logD in data set [6] of 2.62. In data set [7], the Papp is 9.1 ×10⁻⁶ cm/s.
For `COc1ccc(Cl)cc1S(=O)(=O)N1COc2c(C)cc(C(=O)Nc3ccc(CC(=O)O)cc3)cc21`, the pIC50 is 5.64 in data set [1], < 4.00 in data set [2], < 4.00 in data set [3] and 6.43 in data set [4]. Moreover, the solubility kinetic in data set [5] came to 509 µg/mL (≈ 985 µM). In data set [6], the pH-dependent lipophilicity (logD) is 0.65. The Papp in data set [7] came to 3.17 ×10⁻⁶ cm/s.
For `COc1ccc(Cl)cc1CN1C(=O)OCc2ccc(C(=O)Nc3ccc(CC(=O)O)cc3)cc21`, the pIC50 was 4.89 in data set [1], < 4.00 in data set [2], < 4.00 in data set [3] and 6.53 in data set [4]. Moreover, the solubility kinetic in data set [5] came out at 44 µg/mL (≈ 91.5 µM). For the same compound, the logD in data set [6] was 0.06. Also, in data set [7], the Papp amounted to 1.48 ×10⁻⁶ cm/s.
`NS(=O)(=O)c1ccc2c(c1)CN(C(=O)[C@H]1CCCCN1C(=O)COc1ccccc1)CC2`: the pIC50 was < 4.00 in data set [1], 5.15 in data set [2], 4.34 in data set [3] and 6.08 in data set [4]. In addition, the solubility kinetic in data set [5] was found to be 175 µg/mL (≈ 382 µM). In data set [6], this compound displayed a logD of 1.41. Besides, in data set [7], the Papp was 4.46 ×10⁻⁶ cm/s.
For the compound `O=C(c1nc([C@H]2CCCCN2C(=O)COc2ccccc2)no1)N1CCOCC1`, the pIC50 was < 4.00 in data set [1], 4.47 in data set [2], < 4.00 in data set [3] and 6.50 in data set [4]. In data set [5], the solubility kinetic was > 467 µg/mL. Further, the logD in data set [6] amounted to 1.47. Moreover, in data set [7], the Papp worked out at 8.06 ×10⁻⁶ cm/s.
Turning to `COc1ccc(Cl)cc1S(=O)(=O)N(C)c1cccc(C(=O)Nc2nc(CC(=O)O)cs2)c1`, the pIC50 in data set [1] is 5.84; in data set [2], < 4.00; in data set [3], < 4.00; in data set [4], 7.21. The solubility kinetic in data set [5] was > 549 µg/mL. In data set [6], the pH-dependent lipophilicity (logD) was determined as 0.02. The Papp in data set [7] was found to be 2.48 ×10⁻⁶ cm/s.
For `CCc1ccc(CCOc2ccc(CC3SC(=O)NC3=O)cc2)nc1` (configuration not stated) [PIOGLITAZONE], the pIC50 in data set [1] was < 4.00; in data set [2], < 4.00; in data set [3], < 4.00; in data set [4], < 5.00. Also, in data set [5], the solubility kinetic is < 1 µg/mL. In data set [6], the logD was found to be 4. Besides, the Papp in data set [7] worked out at 7.49 ×10⁻⁶ cm/s.
